pIC50: −log10 of the molar value. Like-named read-outs stand apart in the source and are kept apart here.
Tests used:
20S proteasome (CP) gate = system: T1, 20S proteasome (CP) gate; experiment: Steady-state Trp fluorescence of SDS-activated 20S proteasome (gating); set-up: species or system human; conditions: 100 μM Cu(II) added to SDS-activated CP (0.018% SDS), pH 7.6, 37 °C
T1 construct: purchased Boston Biochem (Cambridge, MA, USA)
Description: In particular, fluorescence spectra of the isolated 20S proteasome may be deconvoluted into two components. The first of these bands is ascribable to Trp13(α6) residues which are located at the entrance of the channel. Therefore, a red-shift of the first component may be associated to a gate opening of the 20S proteasome. Here, we exploited this effect to investigate the role of Cu(II) ions in CP gate closing. […] Next, we recorded the fluorescence spectra obtained immediately (t = 0 min) and after 30 min the addition of 100 μM Cu(II) ions to the SDS-activated CP and deconvoluted the fluorescence spectra into the contributions from each type of tryptophan as described in the experimental section (see Fig. 3 panel A). […]
Fluorescence emission spectra of purified 20S proteasomes (1.5 μM) in a MOPS buffer 10 mM, 0.018% SDS, pH 7.6 were recorded at 37 °C over time prior to and following addition of Cu(II) (100 μM). […] The final fluorescence spectra represent averages of at least three measurements. […] Fluorescence spectra were recorded on a Horiba Fluoromax-4 spectrofluorimeter from 300 to 400 nm in 1-nm steps, at an excitation wavelength λexc = 295 nm. Deconvolution of fluorescence spectra into the log-normal components was performed according to the algorithms integrated into the web-based toolkit PFAST (http://pfast.phys.edu/)[43]. […]

[1] = system: proteasome ChT-L activity in HeLa cells; experiment: Proteasome-Glo Chymotrypsin-Like Cell-Based Assay in intact HeLa cells; set-up: species or system human; conditions: for Copper-induced proteasome inhibition in cells pretreated with NAC: 100 μM NAC pretreatment 24 h
Description: HeLa cells (human cervix carcinoma), were cultured in Dulbecco’s MEM medium (Life Technologies) supplemented with 10% of fetal calf serum (FCS, Life Technologies), glutamax (Invitrogen), 100 U/mL penicillin, 100 µg/mL streptomycin. Cells were routinely grown as stocks in 75 cm^2 flasks in a humidified atmosphere (95% air, 5% CO2) at 37 °C.
The ChT-L proteolytic activity of the proteasome in intact HeLa cells were determined using the Proteasome-Glo™ Chymotrypsin-Like Cell-Based Assay (Promega) according to manufacturer's instructions. Briefly, 800 cells/well were grown in 384 sterile multiwells (optical plate and white walls) in 50 μl of DMEM + FBS10% + PenStrep 1%. After 4 h of cell seeding, Cu(II) was added in cell medium in a concentration range 10–80 μM for 24 h. Then the medium was removed and replaced with FCS free medium. To determine whether or not the residual proteolytic measured was dependent on to proteasome rather than other proteases, we performed a control experiment with epoxomicin, a specific proteasome inhibitor. Epoxomicin (5 μM) was added to the cells 60 min before the proteasome activity assay. The substrate for the β5 ChT-L activity (Suc-LLVY-aminoluciferin) was dissolved in Proteasome-Glo™ Cell-Based Reagent and added to intact cells. After 2 min of shaking for permeabilization and further 10 min of incubation at 25 °C, luminescence was measured with a Varioskan Flash (Thermo) micro plate reader. Proteasome activity in intact cells was also measured by using the internally quenched fluorogenic substrate H2N-K-K(Dabcyl)-K-K-L-L-V-Y-G-E(Edans)-G-R-K-K-R-R-Q-R-R-R- (TED) as described elsewhere. […] The peptide purity was determined by MALDI-TOF experiments carried out with a Bruker Reflex III time-of-flight (TOF) mass spectrometer operating in the reflection mode, and the matrix used was α-cyano 4-hydroxycinnamic. […] TED internalization and cleavage in live HeLa cells was assayed by fluorescence microscopy (see Figure S8 of Supplementary Information).

[2] = biological target: T2, human 20S proteasome (hCP), C-L activity; experiment: C-L peptidase activity of isolated hCP (fluorogenic substrate); format: biochemical
T2 construct: purchased Boston Biochem (Cambridge, MA, USA)
From the text: Purified human 20S proteasome (hCP) and the fluorogenic substrates Suc-LLVY-AMC, Z-Leu-Leu-Glu-AMC, and Ac-Arg-Leu-Arg-AMC used to assay the ChT-L, T-L, and C-L activity, were from Boston Biochem (Cambridge, MA, USA). Bathocuproinedisulfonic acid disodium salt (BCS), dithiothreitol (DTT), N-Acetyl-L-Cysteine (NAC), Sodium dodecylsulphate (SDS) as well as CuCl2 and Zn(NO3)2 were from Sigma-Aldrich (St. Louis, MO). Proteasome inhibitors Epoxomicin were obtained from Enzo Life Science. Wild type 20S proteasome isolated from Saccharomices Cerevisiae (yCP) and a mutant (α3ΔN) where nine residues of the N-terminal tail of the α3 subunit are deleted to provide a permanently open-gate conformations were isolated as described elsewhere.
Peptidase activities of hCP (2 nM) were assayed on in 50 μL Tris 25 mM pH 7.6, at 37 °C with 100 μM of the fluorogenic substrate. hCP was incubated with Cu(II)/Zn(II) ions for 1 h prior activity assays. The fluorescence signal activated by peptide cleavage was recorded at 440 nm (excitation at 360 nm) for 45 min, by a Varioskan (Thermo^©) plate reader in 384 multiwell plates. Three replicates were performed for each data point. Data were reported as normalized percentages of residual activity. The potency (IC50) was calculated from the value of the dose response plot corresponding at a fractional activity of 50%. The IC50 values were determined using a non linear fit of experimental data in according to equation: […]
The midpoint of this function occurs at a fractional activity value of 50%, corresponding to half inhibition of the target enzyme. The IC50 values and their standard errors were deduced from the fitting. To evaluate if copper is a reversible PI, we measured the ChT-L activity of hCP incubated with Cu(II) (2.20 μM) before and after addition of an equimolar amount of EDTA.

## [Cl][Cu][Cl] [Cu(II), CuCl2]
20S proteasome (CP) gate
  Red shift of first Trp fluorescence component (gate opening): decreased rate of red-shift
[1]; Cu(II) 80 μM
  Copper-induced proteasome inhibition in cells pretreated with NAC: did not overcome proteasome inhibition
[1]; Cu(II) 20 to 80 μM in medium, 24 h
  ChT-L activity in HeLa cells (normalized to untreated controls): 60%
[1]; Cu(II) 20–40 μM
  Copper-induced proteasome inhibition in cells pretreated with NAC: completely abolished
[2]; hCP 2 nM, 1 h preincubation with ions, Tris 25 mM pH 7.6, 37 °C, no SDS, read-out: IC50 C-L
  pIC50: 6.00
[2]; in the presence of 0.018% SDS, other conditions unmodified, read-out: IC50 C-L, Cu(II) + SDS
  pIC50: 5.74

Reference: article PMC5025780, “Copper(II) ions affect the gating dynamics of the 20S proteasome: a molecular and in cell study” (Scientific Reports, 2016)
